Results published in patent US11155530B2, “Urea-oxaziridines” (The Regents of the University of California, priority 2018, dated 2021).

Test: Stability of redox conjugation product-sulfimide
Assay type: physicochemical
Conditions: salt form formed from S3 under strong acidic condition (1 N HCl); co-solvent d-MeOD/D2O=1:1; monitored by NMR after 1 h and 18 h
Protocol: The stability of sulfimides were tested by treatment of sulfimides S2 with 5 mM TCEP or treatment of sulfimides S3 with 1 N HCl, 1 N NaOH or 80° C. in co-solvent (d-MeOD/D2O=1:1). The reactions were monitored by NMR after 1 h and 18 h and the reaction conversions were calculated based on NMR data. Sulfimide S3 can be protonated under strong acidic condition to its salt form S4, which is stable in aqueous solution.

CCNC(=O)N[S+](C)c1ccccc1.[Cl-] (stereo not shown) [Compound S4]
stability in aqueous solution: stable
